In patent US9783527B2, “Indazole ureas and method of use” (AbbVie Inc., priority 2014, dated 2017):

target: human Nav1.7 (Homo sapiens (Human), UniProt Q15858); experiment: FRET-based membrane potential assay, recombinant human sodium channel Nav1.7; assay type: cell-based; conditions: HEK293 cells stably expressing recombinant human Nav1.7; depolarization with veratridine (EC80) + scorpion venom
Summary of the method: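 IC50 derived by four-parameter Hill fit of percent inhibition of depolarization, measured as peak F440-480/F565-625 ratio over baseline. Stable human Nav1.7 HEK293 cells, dye-loaded with CC2-DMPE and DiSBAC2(3)/VABSC-1 at room temperature, received compound 3 min ahead of veratridine (EC80) plus scorpion venom.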

Chain of human Nav1.7 (Q15858 whole entry): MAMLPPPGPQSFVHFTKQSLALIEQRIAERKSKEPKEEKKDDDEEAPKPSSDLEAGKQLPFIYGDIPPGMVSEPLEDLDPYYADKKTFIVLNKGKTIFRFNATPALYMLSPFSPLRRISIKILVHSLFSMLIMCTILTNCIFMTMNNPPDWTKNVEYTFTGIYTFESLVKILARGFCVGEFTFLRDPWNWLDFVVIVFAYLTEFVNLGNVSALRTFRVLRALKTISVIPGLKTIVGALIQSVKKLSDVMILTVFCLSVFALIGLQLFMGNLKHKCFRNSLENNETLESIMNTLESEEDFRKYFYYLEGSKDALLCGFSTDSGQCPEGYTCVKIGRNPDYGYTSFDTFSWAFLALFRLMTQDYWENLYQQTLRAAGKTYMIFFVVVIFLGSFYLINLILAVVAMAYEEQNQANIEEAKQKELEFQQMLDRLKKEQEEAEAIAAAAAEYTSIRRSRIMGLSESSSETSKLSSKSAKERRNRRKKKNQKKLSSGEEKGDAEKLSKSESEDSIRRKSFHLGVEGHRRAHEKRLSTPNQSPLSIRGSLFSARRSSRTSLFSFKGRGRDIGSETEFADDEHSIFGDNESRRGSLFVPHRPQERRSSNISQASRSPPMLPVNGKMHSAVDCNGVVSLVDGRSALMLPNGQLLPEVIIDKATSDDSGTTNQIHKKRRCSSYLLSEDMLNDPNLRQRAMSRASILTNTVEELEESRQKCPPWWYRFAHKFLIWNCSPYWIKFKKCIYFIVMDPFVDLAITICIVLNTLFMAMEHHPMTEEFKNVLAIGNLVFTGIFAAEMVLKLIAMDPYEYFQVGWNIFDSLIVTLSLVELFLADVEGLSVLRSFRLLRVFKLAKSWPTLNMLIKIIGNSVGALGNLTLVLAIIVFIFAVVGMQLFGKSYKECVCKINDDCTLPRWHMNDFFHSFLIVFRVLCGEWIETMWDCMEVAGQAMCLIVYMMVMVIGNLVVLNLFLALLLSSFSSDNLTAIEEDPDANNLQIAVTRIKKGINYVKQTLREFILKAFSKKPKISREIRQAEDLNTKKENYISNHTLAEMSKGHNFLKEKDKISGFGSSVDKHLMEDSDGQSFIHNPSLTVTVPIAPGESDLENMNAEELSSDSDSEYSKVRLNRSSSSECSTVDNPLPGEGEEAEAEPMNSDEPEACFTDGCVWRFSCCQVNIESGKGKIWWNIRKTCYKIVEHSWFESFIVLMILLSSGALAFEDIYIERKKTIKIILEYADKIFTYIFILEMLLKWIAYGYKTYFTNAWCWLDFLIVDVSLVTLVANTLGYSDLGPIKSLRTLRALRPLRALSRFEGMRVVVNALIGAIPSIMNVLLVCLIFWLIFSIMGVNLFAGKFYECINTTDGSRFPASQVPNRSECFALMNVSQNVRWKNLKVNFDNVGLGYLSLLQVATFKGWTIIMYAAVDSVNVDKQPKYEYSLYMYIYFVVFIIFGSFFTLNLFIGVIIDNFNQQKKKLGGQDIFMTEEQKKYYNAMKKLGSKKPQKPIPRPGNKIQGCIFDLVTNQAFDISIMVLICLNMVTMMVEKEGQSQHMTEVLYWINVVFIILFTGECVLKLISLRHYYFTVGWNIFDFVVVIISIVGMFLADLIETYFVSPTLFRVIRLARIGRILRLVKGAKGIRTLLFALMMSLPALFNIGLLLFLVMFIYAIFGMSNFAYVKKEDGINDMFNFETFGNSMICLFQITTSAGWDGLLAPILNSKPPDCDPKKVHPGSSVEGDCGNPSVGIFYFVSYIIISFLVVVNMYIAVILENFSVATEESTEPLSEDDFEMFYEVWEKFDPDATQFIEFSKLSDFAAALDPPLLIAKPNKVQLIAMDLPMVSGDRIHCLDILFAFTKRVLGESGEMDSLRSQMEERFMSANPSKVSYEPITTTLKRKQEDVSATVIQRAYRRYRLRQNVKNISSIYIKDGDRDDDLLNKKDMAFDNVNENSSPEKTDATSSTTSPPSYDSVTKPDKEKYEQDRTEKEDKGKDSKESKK

Row | Structure (SMILES) | IC50
1 | COc1nccnc1CN1CCN(c2cccc3c2cnn3-c2ccccc2F)C1=O [Example 248, 1-[1-(2-fluorophenyl)-1H-indazol-4-yl]-3-[(3-methoxypyrazin-2-yl)methyl]imidazolidin-2-one] | 1.04 µM
2 | CC(C)c1cc(CN2CCN(c3cccc4c3cnn4-c3ccccc3F)C2=O)on1 [Example 249, 1-[1-(2-fluorophenyl)-1H-indazol-4-yl]-3-[(3-isopropyl-1,2-oxazol-5-yl)methyl]imidazolidin-2-one] | 2.43 µM
3 | CCc1nc(CN2CCN(c3cccc4c3cnn4-c3ccccc3F)C2=O)cs1 [Example 250, 1-[(2-ethyl-1,3-thiazol-4-yl)methyl]-3-[1-(2-fluorophenyl)-1H-indazol-4-yl]imidazolidin-2-one] | 1.14 µM
4 | CC(C)c1cc(CN2CCN(c3cccc4c3cnn4-c3ccccc3F)C2=O)no1 [Example 251, 1-[1-(2-fluorophenyl)-1H-indazol-4-yl]-3-[(5-isopropyl-1,2-oxazol-3-yl)methyl]imidazolidin-2-one] | 2.06 µM
5 | O=C1N(Cc2cc(C3CC3)on2)CCN1c1cccc2c1cnn2-c1ccccc1F [Example 252, 1-[(5-cyclopropyl-1,2-oxazol-3-yl)methyl]-3-[1-(2-fluorophenyl)-1H-indazol-4-yl]imidazolidin-2-one] | 1.76 µM
6 | Cc1noc([C@@H](C)N2CCN(c3cccc4c3cnn4-c3ccc(F)cc3F)C2=O)n1 [Example 253, 1-[1-(2,4-difluorophenyl)-1H-indazol-4-yl]-3-[(1R)-1-(3-methyl-1,2,4-oxadiazol-5-yl)ethyl]imidazolidin-2-one] | 0.932 µM
7 | COCc1nc(CN2CCN(c3cccc4c3cnn4-c3ccccc3F)C2=O)cs1 [Example 254, 1-[1-(2-fluorophenyl)-1H-indazol-4-yl]-3-{[2-(methoxymethyl)-1,3-thiazol-4-yl]methyl}imidazolidin-2-one] | 0.825 µM
8 | O=C1N(Cc2ncco2)CCCN1c1cccc2c1cnn2-c1ccccc1F [Example 255, 1-[1-(2-fluorophenyl)-1H-indazol-4-yl]-3-(1,3-oxazol-2-ylmethyl)tetrahydropyrimidin-2(1H)-one] | 5.51 µM
9 | CC(C)c1nnc(CN2CCN(c3cccc4c3cnn4-c3ccccc3F)C2=O)o1 [Example 256, 1-[1-(2-fluorophenyl)-1H-indazol-4-yl]-3-[(5-isopropyl-1,3,4-oxadiazol-2-yl)methyl]imidazolidin-2-one] | 3.12 µM
10 | Cc1cnc(CN2CCN(c3cccc4c3cnn4-c3ccccc3F)C2=O)cn1 [Example 257, 1-[1-(2-fluorophenyl)-1H-indazol-4-yl]-3-[(5-methylpyrazin-2-yl)methyl]imidazolidin-2-one] | 3.09 µM
11 | Cc1noc(C)c1CN1CCCN(c2cccc3c2cnn3-c2ccccc2F)C1=O [Example 258, 1-[(3,5-dimethyl-1,2-oxazol-4-yl)methyl]-3-[1-(2-fluorophenyl)-1H-indazol-4-yl]tetrahydropyrimidin-2(1H)-one] | 11 µM
12 | Cc1cncc(CN2CCCN(c3cccc4c3cnn4-c3ccccc3F)C2=O)n1 [Example 259, 1-[1-(2-fluorophenyl)-1H-indazol-4-yl]-3-[(6-methylpyrazin-2-yl)methyl]tetrahydropyrimidin-2(1H)-one] | 3.36 µM
13 | Cc1nnc(CN2CCCN(c3cccc4c3cnn4-c3ccccc3F)C2=O)o1 [Example 260, 1-[1-(2-fluorophenyl)-1H-indazol-4-yl]-3-[(5-methyl-1,3,4-oxadiazol-2-yl)methyl]tetrahydropyrimidin-2(1H)-one] | 20 µM
14 | CCc1nnc(CN2CCN(c3cccc4c3cnn4-c3ccccc3F)C2=O)o1 [Example 261, 1-[(5-ethyl-1,3,4-oxadiazol-2-yl)methyl]-3-[1-(2-fluorophenyl)-1H-indazol-4-yl]imidazolidin-2-one] | 3.41 µM
15 | CC(C)(C)c1nnc(CN2CCN(c3cccc4c3cnn4-c3ccccc3F)C2=O)o1 [Example 262, 1-[(5-tert-butyl-1,3,4-oxadiazol-2-yl)methyl]-3-[1-(2-fluorophenyl)-1H-indazol-4-yl]imidazolidin-2-one] | 2.52 µM
16 | Cc1cnc(CN2CCN(c3cccc4c3cnn4-c3ccccc3F)C2=O)s1 [Example 263, 1-[1-(2-fluorophenyl)-1H-indazol-4-yl]-3-[(5-methyl-1,3-thiazol-2-yl)methyl]imidazolidin-2-one] | 0.494 µM
17 | Cc1nocc1CN1CCN(c2cccc3c2cnn3-c2ccccc2F)C1=O [Example 264, 1-[1-(2-fluorophenyl)-1H-indazol-4-yl]-3-[(3-methyl-1,2-oxazol-4-yl)methyl]imidazolidin-2-one] | 3.35 µM

Row | Structure (SMILES) | IC50
18 | O=C1N(c2cccc3c2cnn3-c2ccccc2F)CCN1[C@H]1CC[C@H](O)CC1 [Example 265, 1-[1-(2-fluorophenyl)-1H-indazol-4-yl]-3-(trans-4-hydroxycyclohexyl)imidazolidin-2-one] | 8.15 µM
19 | O=C1CCC(N2CCN(c3cccc4c3cnn4-c3ccccc3F)C2=O)CC1 [Example 266, 1-[1-(2-fluorophenyl)-1H-indazol-4-yl]-3-(4-oxocyclohexyl)imidazolidin-2-one] | 3.02 µM
20 | CC(C)(C)OC(=O)N1CC(N2CCN(c3cccc4c3cnn4-c3ccccc3F)C2=O)C1 [Example 267, tert-butyl 3-{3-[1-(2-fluorophenyl)-1H-indazol-4-yl]-2-oxoimidazolidin-1-yl}azetidine-1-carboxylate] | 1.09 µM
21 | O=C1N(c2cccc3c2cnn3-c2ccccc2F)CCN1C1CNC1 [Example 268, 1-(azetidin-3-yl)-3-[1-(2-fluorophenyl)-1H-indazol-4-yl]imidazolidin-2-one] | 15 µM
22 | O=C1N(c2cccc3c2cnn3-c2ccccc2F)CCN1C1CN(C(=O)C2(O)CC2)C1 [Example 269, 1-[1-(2-fluorophenyl)-1H-indazol-4-yl]-3-{1-[(1-hydroxycyclopropyl)carbonyl]azetidin-3-yl}imidazolidin-2-one] | 5.79 µM
23 | NC(=O)C(=O)N1CC(N2CCN(c3cccc4c3cnn4-c3ccccc3F)C2=O)C1 [Example 270, 2-(3-{3-[1-(2-fluorophenyl)-1H-indazol-4-yl]-2-oxoimidazolidin-1-yl}azetidin-1-yl)-2-oxoacetamide] | 5.87 µM
24 | CS(=O)(=O)N1CC(N2CCN(c3cccc4c3cnn4-c3ccccc3F)C2=O)C1 [Example 271, 1-[1-(2-fluorophenyl)-1H-indazol-4-yl]-3-[1-(methylsulfonyl)azetidin-3-yl]imidazolidin-2-one] | 3.45 µM
25 | O=C1N(c2cccc3c2cnn3-c2ccccc2F)CCN1[C@@H]1CCCC[C@H]1OCc1ccccc1 [Example 272, 1-[(1R,2R)-2-(benzyloxy)cyclohexyl]-3-[1-(2-fluorophenyl)-1H-indazol-4-yl]imidazolidin-2-one] | 0.338 µM
26 | O=C1N(c2cccc3c2cnn3-c2ccccc2F)CCN1[C@@H]1CCCC[C@H]1O [Example 273, 1-[1-(2-fluorophenyl)-1H-indazol-4-yl]-3-[(1R,2R)-2-hydroxycyclohexyl]imidazolidin-2-one] | 4.86 µM
27 | O=C(CN1CCN(c2cccc3c2cnn3-c2ccccc2)C1=O)N1CCCC1 [Example 277, 1-[2-oxo-2-(pyrrolidin-1-yl)ethyl]-3-(1-phenyl-1H-indazol-4-yl)imidazolidin-2-one] | 3.06 µM
28 | O=C(CN1CCN(c2cccc3c2cnn3-c2ccccn2)C1=O)N1CCCC1 [Example 278, 1-[2-oxo-2-(pyrrolidin-1-yl)ethyl]-3-[1-(pyridin-2-yl)-1H-indazol-4-yl]imidazolidin-2-one] | 5.78 µM
29 | CCOC(=O)/C=C\N1CCN(c2cccc3c2cnn3-c2ccccc2F)C1=O [Example 287, ethyl (2Z)-3-{3-[1-(2-fluorophenyl)-1H-indazol-4-yl]-2-oxoimidazolidin-1-yl}acrylate] | 5.8 µM
30 | CCOC(=O)/C=C/N1CCN(c2cccc3c2cnn3-c2ccccc2F)C1=O [Example 288, ethyl (2E)-3-{3-[1-(2-fluorophenyl)-1H-indazol-4-yl]-2-oxoimidazolidin-1-yl}acrylate] | 5.3 µM
31 | CC1(C)CC1NC(=O)CN1CCN(c2cccc3c2cnn3-c2ccccc2F)C1=O (stereo not shown) [Example 328, N-(2,2-dimethylcyclopropyl)-2-{3-[1-(2-fluorophenyl)-1H-indazol-4-yl]-2-oxoimidazolidin-1-yl}acetamide] | 3.02 µM
32 | O=C(CN1CCN(c2cccc3c2cnn3-c2ccccc2F)C1=O)N1CCC(C(F)F)C1 (stereo not shown) [Example 330, 1-{2-[3-(difluoromethyl)pyrrolidin-1-yl]-2-oxoethyl}-3-[1-(2-fluorophenyl)-1H-indazol-4-yl]imidazolidin-2-one] | 1.15 µM
33 | O=C(CN1CCN(c2cccc3c2cnn3-c2ccccc2F)C1=O)NC1CCC(F)(F)CC1 [Example 356, N-(4,4-difluorocyclohexyl)-2-{3-[1-(2-fluorophenyl)-1H-indazol-4-yl]-2-oxoimidazolidin-1-yl}acetamide] | 1.86 µM
34 | CC(C)(C)CNC(=O)CN1CCN(c2cccc3c2cnn3-c2ccccc2F)C1=O [Example 357, N-(2,2-dimethylpropyl)-2-{3-[1-(2-fluorophenyl)-1H-indazol-4-yl]-2-oxoimidazolidin-1-yl}acetamide] | 3.06 µM
